In EP1897937A1, “Method of culturing NPCs” (NeuroProgen GmbH Leipzig, priority 2006, dated 2008):

Key:
Assay type in all cases: cell-based, human
[1] = system: hmNPCs; test: Dopaminergic differentiation: TH protein expression by Western blot
Procedure: (§1) To determine long-term proliferation, hmNPCs were plated and expanded for 2 passages with or without addition of various agents (see below) to the custom expansion media containing the growth factors EGF and FGF2. Different fetal midbrain tissues were included in this study. At the end of the proliferation period, differentiation of hmNPCs was induced via replacement of expansion media with mitogen-free media containing 1% FCS, 5 µM forskoline (Sigma-Aldrich Chemie GmbH Munich, Germany), and 100 pg/ml IL-1β (Sigma). The differentiation and expansion media were supplemented with different drugs as appropriate. Prior to immunocytochemistry or protein extraction, hmNPCs were allowed to differentiate for 1 week. To determine short-term proliferation via Ki67 immunostaining, the cells were seeded into 24-well plates (70,000 cells/well) and left overnight to rest. P2 receptor agonists (ATP, UTP, ATP + UTP, ADP, ADPβS) were supplied daily for 5 consecutive days. Ki67/nestin double-positive cells were counted in 8 randomly selected fields of nucleotide-treated or untreated samples. For the assessment of MAPK phosphorylation the cells were kept free of mitogens for 2 d prior to addition of the MEK-inhibitor in expansion media. In addition, the MEK-inhibitor was added during the differentiation period 15 min before UTP administration.
(§2) UTP, UDP, ATP, ADP, ADPβS and suramin were purchased from Sigma (Sigma-Aldrich Chemie GmbH Munich, Germany). UTP and UDP were applied at different concentrations (1 µM, 10 µM, 100 µM), ATP at 100 µM, ADP at 100 µM, and ADPβS at100 µM. During expansion of the cells, the nucleotides were renewed once a week with every media change, unless otherwise stated. They were applied once at the beginning of the differentiation period. The P2 receptor antagonist suramin (10 µM) was added to expansion media 30 min prior to addition of UTP (100 µM). The stock solution of the MEK1/2 inhibitor U0126 (Promega Corporation, Mannheim, Germany) was prepared in dimethyl sulfoxide (DMSO) at a concentration of 10 mM. The stock solution was then diluted in 0.1 M PBS to obtain a concentration of 1 mM. MEK inhibitor (final concentration 10 µM) was added to mitogen-free expansion media, 15 min before UTP treatment (1 µM) of hmNPCs.
In order to prepare protein extracts, hmNPCs were collected, washed with ice-cold PBS and lysed in buffer [10 mM HEPES-KOH (pH 7.9), 10 mM KCI, 1.5 mM MgCl2, 0.1% NP-40], supplemented with protease inhibitor cocktail (Roche). After a brief centrifugation at 4°C/10 000×g, protein concentrations and protein yield from extracts were determined using the Bradford method (Bio-Rad, Hercules, CA, USA). To preserve the phosphorylation state of proteins, extracts for the MAPK experiment were obtained using the PhosphoSafe™ extraction reagent containing phophatase inhibitors (Novagen). […] Membranes were blocked with 5% (wt/vol) nonfat dry milk in PBS-T (PBS, 0.1% (vol/vol) Tween 20) for 2 h at room temperature and subsequently incubated with the desired primary antibody (diluted in PBS containing 5% non-fat milk and 0.1% Tween 20) overnight at 4 °C with gentle agitation. The membrane was incubated with horseradish peroxidase-coupled secondary antibody for 1 h at room temperature. Chemiluminescence detection was performed by incubating the membranes with SuperSignal-Dura substrate (Pierce Biotechnology, Rockford, U.S.A) followed by analysis on a CCD cooling camera (Fuji LAS-1000plus). The chemiluminescence was quantified using the AIDA, two-dimensional densitometry software (Raytest lsotopenmeb, Straubenhardt, Germany).

[2] = system: hmNPCs; test: Long-term proliferation: number of living cells (hemocytometer, trypan blue exclusion)
Procedure: as §1, §2
Cell counting of control (untreated) and treated hmNPCs was performed using a hemocytometer. Adherent cells were collected by detachment with accutase™ (PAA Laboratories, Pasching, Austria) for 10 min at 37°C. […] The number of total and trypan blue-positive cells was then determined by counting at least 300 cells per sample in a hemocytometer.

[3] = system: hmNPCs; test: Western blot of proliferation marker PCNA and survival marker Bcl-2; conditions: 2 weeks
Procedure: as §1
In order to prepare protein extracts, hmNPCs were collected, washed with ice-cold PBS and lysed in buffer [10 mM HEPES-KOH (pH 7.9), 10 mM KCI, 1.5 mM MgCl2, 0.1% NP-40], supplemented with protease inhibitor cocktail (Roche). After a brief centrifugation at 4°C/10 000×g, protein concentrations and protein yield from extracts were determined using the Bradford method (Bio-Rad, Hercules, CA, USA). To preserve the phosphorylation state of proteins, extracts for the MAPK experiment were obtained using the PhosphoSafe™ extraction reagent containing phophatase inhibitors (Novagen). […] The chemiluminescence was quantified using the AIDA, two-dimensional densitometry software (Raytest lsotopenmeb, Straubenhardt, Germany). […]

Q: With `O=c1ccn([C@@H]2O[C@H](COP(=O)(O)OP(=O)(O)OP(=O)(O)O)[C@@H](O)[C@H]2O)c(=O)[nH]1` [UTP, uridine 5'-triphosphate] as the compound, how does the TH expression ([1]; 1 µM during 2 weeks of expansion, then 100 µM during 1 week of differentiation) read?
A: Its TH expression is 529 ± 20%.

Q: And the “expression of TH” value ([1]; 100 µM, one week of differentiation)?
A: Its value is “increased”.

Q: And the activity at 100 µM ([1]; Homo sapiens, 100 µM, long-term treatment, read-out: TH protein expression in Western blots as compared to controls)?
A: The activity at 100 µM was 319 ± 5%.

Q: And the “number of living cells” value ([2]; 100 µM each, 2 weeks in expansion media, on coapplication ADP 30 min before UTP, 20160 min)?
A: Its value is 110 ± 6%.

Q: What about the activity at 1 µM ([2]; Homo sapiens, 336 h, 1 µM, 2 passages (approximately 2 weeks of expansion), control 100 ± 5%, read-out: number of living cells as compared to controls) of the same compound?
A: Its activity at 1 µM is 152 ± 6%.

Q: And the “performance of proliferating hmNPCs grown without mitogens” value ([2]; without EGF and FGF2, 1 µM once in 5 days)?
A: Its value is “performed slightly better”.

Q: And the activity at 1 µM ([3]; Homo sapiens, 336 h, 1 µM, read-out: expression of the proliferation marker PCNA compared to control cells)?
A: The activity at 1 µM was 330 ± 23%.

Q: And the “expression of the survival marker Bcl-2” value ([3]; increasing UTP concentrations)?
A: The value was “did not significantly change”.
